In one assay the test system is HCT116 MTAP null cells. The assay can be described thus: HCT116 MTAP null cell proliferation / viability (CellTiter-Glo, 6 days). The class given is cell-based. Particulars: HCT116-MTAP null, 144 h, HCT116 MTAP null cells, 6 days, CellTiter-Glo; read-out: HCT-116 MTAP null IC50. The gist of the method: (§1)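 IC50 values derive from sigmoidal dose-response fits, some with Hill slope fixed at −1 and top constrained to 100%, others from 4-parameter logistic models. They reflect CellTiter-Glo viability after 6 days of compound exposure at up to 10 or 50 μM.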

The subject of a further assay is HCT116 WT cells. The assay can be described thus: HCT116 WT cell proliferation / viability (CellTiter-Glo, 6 days). In kind it is cell-based. Particulars: Homo sapiens, HCT-116, 144 h, HCT116 WT cells, 6 days, CellTiter-Glo; read-out: HCT-116 WT IC50. The method, boiled down:
as §1

pIC50: −log10 of the molar value. Where only a bound is given, the exact number is not on record here.

What is called pIC50 is the IC50 on a negative log10 scale, so that one unit is a factor of ten.

In the case of `CC1OCc2c1c(N)nc1ccc(C(=O)N(Cc3ccc(C(F)(F)F)cn3)C3CC34CCCC4)cc21` (stereo not drawn) [Example 909, 4-amino-3-methyl-N-(spiro[2.4]heptan-1-yl)-N-((5-(trifluoromethyl)pyridin-2-yl)methyl)-1,3-dihydrofuro[3,4-c]quinoline-8-carboxamide], the pIC50 with HCT116 MTAP null cells is 6.67; in the assay on HCT116 WT cells, 5.10.
The like results for `CC1OCc2c1c(N)nc1ccc(C(=O)N(Cc3ccc(C(F)(F)F)cn3)[C@H](C)c3ncccn3)cc21` (stereo partly drawn) [Example 911, 4-amino-3-methyl-N-((R)-1-(pyrimidin-2-yl)ethyl)-N-((5-(trifluoromethyl)pyridin-2-yl)methyl)-1,3-dihydrofuro[3,4-c]quinoline-8-carboxamide] were, in that order, 7.68 and 6.76.
In the same order, the values of `CC1OCc2c1c(N)nc1ccc(C(=O)N(Cc3ccc(C#N)cn3)CC3(C#N)CC3)cc21` (stereo not drawn) [Example 913, 4-amino-N-((1-cyanocyclopropyl)methyl)-N-((5-cyanopyridin-2-yl)methyl)-3-methyl-1,3-dihydrofuro[3,4-c]quinoline-8-carboxamide] are 7.31 and 5.77.
Turning to `CC1OCc2c1c(N)nc1ccc(C(=O)N(CC3=CCCOC3)Cc3ccc(C(F)(F)F)cn3)cc21` (stereo not drawn) [Example 915, 4-amino-N-((5,6-dihydro-2H-pyran-3-yl)methyl)-3-methyl-N-((5-(trifluoromethyl)pyridin-2-yl)methyl)-1,3-dihydrofuro[3,4-c]quinoline-8-carboxamide], the pIC50 was 7.54 in the assay with HCT116 MTAP null cells and 5.38 with HCT116 WT cells.
In the same order, the values of `CC1OCc2c1c(N)nc1ccc(C(=O)N(Cc3ccc(C(F)(F)F)cn3)Cc3ccnc4[nH]ccc34)cc21` (stereo not drawn) [Example 916, N-((1H-pyrrolo[2,3-b]pyridin-4-yl)methyl)-4-amino-3-methyl-N-((5-(trifluoromethyl)pyridin-2-yl)methyl)-1,3-dihydrofuro[3,4-c]quinoline-8-carboxamide] are 8.22 and 6.70.
The like results for `CC1OCc2c1c(N)nc1ccc(C(=O)N(Cc3ccc(C(F)(F)F)cn3)CC3(C#N)CC3)cc21` (stereo not drawn) [Example 917, 4-amino-N-((1-cyanocyclopropyl)methyl)-3-methyl-N-((5-(trifluoromethyl)pyridin-2-yl)methyl)-1,3-dihydrofuro[3,4-c]quinoline-8-carboxamide] were, in that order, 7.77 and 5.81.
In the same order, the values of `CC1OCc2c1c(N)nc1ccc(C(=O)N(Cc3ccc(C(F)(F)F)cn3)Cc3cnc(N)s3)cc21` (stereo not drawn) [Example 918, 4-amino-N-((2-aminothiazol-5-yl)methyl)-3-methyl-N-((5-(trifluoromethyl)pyridin-2-yl)methyl)-1,3-dihydrofuro[3,4-c]quinoline-8-carboxamide] are 7.27 and < 6.00.
For `CC1OCc2c1c(N)nc1ccc(C(=O)N(C)Cc3ccc(C(F)(F)F)cn3)cc21` (stereo not drawn) [Example 929, 4-amino-N,3-dimethyl-N-((5-(trifluoromethyl)pyridin-2-yl)methyl)-1,3-dihydrofuro[3,4-c]quinoline-8-carboxamide], the pIC50 was 6.70 with HCT116 MTAP null cells and < 6.00 in the assay with HCT116 WT cells.
Take `CCN(Cc1ccc(C(F)(F)F)cn1)C(=O)c1ccc2nc(N)c3c(c2c1)COC3C` (stereo not drawn) [Example 930, 4-amino-N-ethyl-3-methyl-N-((5-(trifluoromethyl)pyridin-2-yl)methyl)-1,3-dihydrofuro[3,4-c]quinoline-8-carboxamide]: the pIC50 in the assay with HCT116 MTAP null cells was 7.21; in the assay on HCT116 WT cells, < 5.00.
In the same order, the values of `CC1OCc2c1c(N)nc1ccc(C(=O)N(Cc3ccc(C(F)(F)F)cn3)C(C)C)cc21` (stereo not drawn) [Example 931, 4-amino-N-isopropyl-3-methyl-N-((5-(trifluoromethyl)pyridin-2-yl)methyl)-1,3-dihydrofuro[3,4-c]quinoline-8-carboxamide] are 7.14 and 5.02.
The like results for `CN(Cc1ccc(C(F)(F)F)cn1)C(=O)c1ccc2nc(N)c3c(c2c1)COC3(C)C` [Example 932, 4-amino-N,3,3-trimethyl-N-((5-(trifluoromethyl)pyridin-2-yl)methyl)-1,3-dihydrofuro[3,4-c]quinoline-8-carboxamide] were, in that order, 6.07 and 5.77.
In the same order, the values of `CCN(Cc1ccc(C(F)(F)F)cn1)C(=O)c1ccc2nc(N)c3c(c2c1)COC3(C)C` [Example 933, 4-amino-N-ethyl-3,3-dimethyl-N-((5-(trifluoromethyl)pyridin-2-yl)methyl)-1,3-dihydrofuro[3,4-c]quinoline-8-carboxamide] are 6.25 and < 5.00.
In the case of `CC(C)N(Cc1ccc(C(F)(F)F)cn1)C(=O)c1ccc2nc(N)c3c(c2c1)COC3(C)C` [Example 934, 4-amino-N-isopropyl-3,3-dimethyl-N-((5-(trifluoromethyl)pyridin-2-yl)methyl)-1,3-dihydrofuro[3,4-c]quinoline-8-carboxamide], the negative-log IC50 (pIC50) in the assay with HCT116 MTAP null cells is 7.10; in the assay with HCT116 WT cells it was < 6.00.
In the same order, the values of `CC1(C)OCc2c1c(N)nc1ccc(C(=O)N(Cc3ccc(C(F)(F)F)cn3)C3CC3)cc21` [Example 935, 4-amino-N-cyclopropyl-3,3-dimethyl-N-((5-(trifluoromethyl)pyridin-2-yl)methyl)-1,3-dihydrofuro[3,4-c]quinoline-8-carboxamide] are 6.20 and < 6.00.
`CC(c1ncc(C(F)(F)F)cc1C#N)N(C)C(=O)c1cc2c(cc1F)nc(N)c1cnn(C)c12` (stereo not drawn) [Example 936, 4-amino-N-(1-(3-cyano-5-(trifluoromethyl)pyridin-2-yl)ethyl)-7-fluoro-N,1-dimethyl-1H-pyrazolo[4,3-c]quinoline-8-carboxamide]: the results for the pIC50 in the assay on HCT116 MTAP null cells and in the assay on HCT116 WT cells were 6.14 and 4.73, respectively.

Values taken from US20240101570A1 (AMGEN INC., priority 2020, published 2024).
